Experimental data taken from patent US12410163B2, “Compounds as GLP-IR agonists” (Terns Pharmaceuticals, Inc., priority 2022, dated 2025).

Target: T1, human GLP-1R receptor (Homo sapiens, UniProt P43220)
T1 construct: expressed in transfected cells
Experiment: GLP-1R low expression cell assay (cAMP TR-FRET, CHO-K1_hGLP-1Rlow_clone10)
Format: cell-based
Details: CHO-K1_hGLP-1Rlow_clone10 cells, percent activation relative to control GLP-1 peptide
Method: Stable cell lines expressing high and low GLP-1R surface expression are generated in CHO-K1 cells transfected (Fugene 6) with a puromycin selectable DNA plasmid encoding human GLP-1R receptor (accession number: NM_002062.5) under control of an EF1A promoter. Transfected cells are seeded into 24-well plates (9,000 cells/well) containing complete medium and incubated in a humidified incubator at 37° C. with 5% carbon dioxide. After overnight incubation, medium is replaced with complete medium supplemented with puromycin (6 μg/mL) and refreshed every 2-3 days to select for stably transfected cells. Individual pools of selected cells are expanded prior to analysis for responsiveness to GLP-1 control peptide using a TR-FRET assay to detect cAMP (LANCE Ultra cAMP Assay, Perkin Elmer). Briefly, cells are collected in Versene solution, plated in 384-well plates (1,000 cells/well) and combined with serially diluted GLP-1R control peptide (10 nL) using an acoustic dispenser (ECHO). Plates are incubated for 30 minutes at 25° C. prior to the addition of EU-cAMP tracer (5 μL) and Ulight-anti-cAMP (5 μL) reagents to each well, followed by 15 minutes incubation at 25° C. TR-FRET signal is detected using an EnVision Multimode Plate Reader (excitation=320 nm; emission=615 and 655 nm). Dose-response curves are used to generate EC50 values as a measure of responsiveness to the GLP-1R control peptide. Selected cell lines are monitored for responsiveness over multiple passages to ensure stability. […] Briefly, GLP-1R expression is analyzed by flow cytometry using a fluorescein-labeled Exendin-4 peptide fluorescent probe (FLEX). Cells are harvested in Versene solution and washed 3-times with PBS+0.5% BSA before incubation with FLEX reagent (10 μM) for 2 hours at room temperature. After incubation, cells are washed 3-times in PBS+0.5% BSA before final resuspension in PBS prior to analysis by flow cytometry to measure FLEX mean fluorescence intensity (MFI) as a measure of GLP-1R expression on the cell surface.
For compound testing in the CHO-K1_hGLP-1Rlow_clone10 cell lines, cells are seeded in 384-well plates (1,000 cells/well). Test compounds are serially diluted in DMSO (10-point, 3-fold dilution), added to wells using an ECHO dispenser (10 nL/well) and plates are centrifuged for 1 min and agitated for 2 min at room temperature prior to 30-minute incubation at 25° C. After incubation, Eu-cAMP (5 μL) and Ulight-anti-cAMP (5 μL) reagents are added to each well, followed by centrifugation for 1 minute, agitation for 2 minutes at room temperature, and final incubation of the plates at 25° C. for 15 minutes. Plates are read using an EnVision microplate reader (excitation=320 nm; emission=615 and 655 nm). Dose-response curves are generated from duplicate wells based on percent activation calculated relative to a control GLP-1 peptide agonist that was run in parallel. EC50 values are determined by fitting percent activation as a function of compound concentration using the Hill equation (XLfit).
Stable cell lines expressing high and low GLP-1R surface expression were generated in CHO-K1 cells transfected (Fugene 6) with a puromycin selectable DNA plasmid encoding human GLP-1R receptor (accession number: NM_002062.5) under control of an EF1A promoter. Transfected cells were seeded into 24-well plates (9,000 cells/well) containing complete medium and incubated in a humidified incubator at 37° C. with 5% carbon dioxide. After overnight incubation, medium was replaced with complete medium supplemented with puromycin (6 μg/mL) and refreshed every 2-3 days to select for stably transfected cells. Individual pools of selected cells were expanded prior to analysis for responsiveness to GLP-1 control peptide using a TR-FRET assay to detect cAMP (LANCE Ultra cAMP Assay, Perkin Elmer).

T1 sequence (P43220 24-463): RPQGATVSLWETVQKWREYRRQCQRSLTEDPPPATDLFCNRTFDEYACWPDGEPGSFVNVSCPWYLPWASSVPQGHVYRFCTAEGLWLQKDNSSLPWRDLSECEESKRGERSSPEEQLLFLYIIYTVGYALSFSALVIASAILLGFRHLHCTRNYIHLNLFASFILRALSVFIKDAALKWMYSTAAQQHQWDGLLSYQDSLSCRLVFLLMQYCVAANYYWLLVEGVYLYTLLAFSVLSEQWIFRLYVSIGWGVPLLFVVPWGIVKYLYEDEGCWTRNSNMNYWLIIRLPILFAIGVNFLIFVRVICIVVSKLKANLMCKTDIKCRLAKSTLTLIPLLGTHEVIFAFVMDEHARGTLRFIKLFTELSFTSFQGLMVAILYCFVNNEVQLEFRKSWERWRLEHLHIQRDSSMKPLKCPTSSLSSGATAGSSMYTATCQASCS

Structure (SMILES)	EC50 [nM]
N#Cc1ccc(COc2cccc(N3CCC(Cc4nc5ccc(C(=O)O)cc5n4Cc4cncs4)C4CC43)n2)c(F)c1 (centres unmarked) [Compound 46, 2-((2-(6-((4-Cyano-2-fluorobenzyl)oxy)pyridin-2-yl)-2-azabicyclo[4.1.0]heptan-5-yl)methyl)-1-(thiazol-5-ylmethyl)-1H-benzo[d]imidazole-6-carboxylic Acid]	50 to 100
N#Cc1ccc(COc2cccc(N3CCN(Cc4nc5ccc(-c6nnc(C(F)(F)F)[nH]6)cc5n4Cc4cncs4)[C@@H]4C[C@@H]43)n2)c(F)c1 (racemic) [Compound 12, 3-Fluoro-4-(((6-(5-((1-(thiazol-5-ylmethyl)-6-(5-(trifluoromethyl)-4H-1,2,4-triazol-3-yl)-1H-benzo[d]imidazol-2-yl)methyl)-2,5-diazabicyclo[4.1.0]heptan-2-yl)pyridin-2-yl)oxy)methyl)benzonitrile]	> 100
C[C@@]1(c2ccc(C#N)cc2F)Oc2cccc(N3CCN(Cc4nc5ccc(C(=O)O)cc5n4Cc4cncs4)[C@H]4C[C@H]43)c2O1 [Compound 35, 2-((5-(2-(4-Cyano-2-fluorophenyl)-2-methylbenzo[d][1,3]dioxol-4-yl)-2,5-diazabicyclo[4.1.0]heptan-2-yl)methyl)-1-(thiazol-5-ylmethyl)-1H-benzo[d]imidazole-6-carboxylic Acid]	> 100
CO[C@H](C)Cn1c(CN2CCN(c3cccc4c3OC(C)(c3ccc(C#N)cc3F)O4)C3CC32)nc2ccc(C(=O)O)cc21 (stereo partly drawn) [Compound 39, 2-((5-(2-(4-Cyano-2-fluorophenyl)-2-methylbenzo[d][1,3]dioxol-4-yl)-2,5-diazabicyclo[4.1.0]heptan-2-yl)methyl)-1-((R)-2-methoxypropyl)-1H-benzo[d]imidazole-6-carboxylic Acid]	50 to 100
CC1(c2ccc(C#N)cc2F)Oc2cccc(N3CCN(Cc4nc5ccc(-c6nnc(C(F)(F)F)[nH]6)cc5n4Cc4cncs4)C4CC43)c2O1 (centres unmarked) [Compound 13, 3-Fluoro-4-(2-methyl-4-(5-((1-(thiazol-5-ylmethyl)-6-(5-(trifluoromethyl)-4H-1,2,4-triazol-3-yl)-1H-benzo[d]imidazol-2-yl)methyl)-2,5-diazabicyclo[4.1.0]heptan-2-yl)benzo[d][1,3]dioxol-2-yl)benzonitrile]	> 100
CC1(c2ccc(C#N)cc2F)Oc2cccc(N3CCN(Cc4nc5ccc(C(=O)O)cc5n4C[C@@H]4CCO4)C4CC43)c2O1 (stereo partly drawn) [Compound 41, 2-((5-(2-(4-cyano-2-fluorophenyl)-2-methylbenzo[d][1,3]dioxol-4-yl)-2,5-diazabicyclo[4.1.0]heptan-2-yl)methyl)-1-(((S)-oxetan-2-yl)methyl)-1H-benzo[d]imidazole-6-carboxylic Acid]	< 5
CCn1nncc1Cn1c(CN2CCN(c3cccc(OCc4ccc(C#N)cc4F)n3)[C@@H]3C[C@@H]32)nc2ccc(C(=O)O)cc21 [Compound 44, 2-((5-(6-((4-Cyano-2-fluorobenzyl)oxy)pyridin-2-yl)-2,5-diazabicyclo[4.1.0]heptan-2-yl)methyl)-1-((1-ethyl-1H-1,2,3-triazol-5-yl)methyl)-1H-benzo[d]imidazole-6-carboxylic Acid]	> 100

Now from value to compound:

EC50 [nM]	Structure (SMILES)
5 to 50	CO[C@H](C)Cn1c(CN2CCC(c3cccc(OCc4ccc(C#N)cc4F)n3)C3CC32)nc2ccc(C(=O)O)cc21 (stereo partly drawn) [Compound 21, 2-((5-(6-((4-Cyano-2-fluorobenzyl)oxy)pyridin-2-yl)-2-azabicyclo[4.1.0]heptan-2-yl)methyl)-1-((R)-2-methoxypropyl)-1H-benzo[d]imidazole-6-carboxylic Acid]
5 to 50	N#Cc1ccc(COc2cccc(C3CCN(Cc4nc5ccc(C(=O)O)cc5n4Cc4cncs4)C4CC34)n2)c(F)c1 (centres unmarked) [Compound 16, 2-((5-(6-((4-Cyano-2-fluorobenzyl)oxy)pyridin-2-yl)-2-azabicyclo[4.1.0]heptan-2-yl)methyl)-1-(thiazol-5-ylmethyl)-1H-benzo[d]imidazole-6-carboxylic Acid]

System: not listed separately
Experiment: Metabolic stability in hepatocytes
Format: in vitro ADME
Details: cryopreserved human hepatocytes (suspension), 1×10^6 cells/mL, 0-240 min, read-out: hHep t1/2
Method: Test compounds are incubated in human hepatocytes and stability is assessed from the substrate […] approach. Test compounds are dissolved in dimethyl sulfoxide (DMSO) to create a 10 mM Stock, and then further diluted to create a 1000× Working Stock of 1 mM with DMSO in 96-well plates for test compounds and the positive control (midazolam). Vials containing cryopreserved hepatocytes are removed from the liquid nitrogen tank and immediately immersed in a 37° C. water bath. The vials are shaken gently until the contents had thawed and were then immediately emptied into 48 mL of pre-warmed HT Medium in a 50 mL conical tube. Cells remaining in the vial are resuspended with 1.0 mL of pre-warmed HT Medium and added to the conical tube. The tube is capped and then gently inverted several times to resuspend the hepatocytes. The cell suspension is centrifuged at 50×g at room temperature for 5 minutes and the supernatant discarded. The cell pellet is loosened by gently swirling the centrifuge tube and is re-suspended in 4 mL of warm Dulbecco's Modified Eagle medium (DMEM). Cell density is determined by a cell counter by Nexcelom, and DMEM medium is added to obtain a target density of 1×10^6 cells/mL. The assay is carried out in 96-well microtiter plates. Test Compounds are incubated at 1 μM with 1×10^6 cells/mL hepatocytes in DMEM for 0, 30, 60, 120 and 240 minutes. The incubation is carried out with gentle shaking at 37° C. under a humid atmosphere of 95% air/5% CO2. The volume of the incubation mixture is 37 μL with a final 0.1% DMSO. At each of the time points, the incubation is stopped by adding 150 μL quenching solution (100% acetonitrile, 0.1% formic acid containing bucetin as an internal standard for positive ESI mode). Subsequently, the mixtures are vortexed for 20 min and centrifuged at 4,000 RPM at 10° C. The supernatant (80 μL) is transferred to a clean 96-well plate and analyzed by LC-MS/MS. Midazolam at 1 μM with a final 0.1% DMSO is included as a positive control to verify assay performance. The percent parent remaining, intrinsic and predicted hepatic clearance and t1/2 are calculated. All samples are analyzed by LC-MS/MS using an AB Sciex API 4000 instrument, coupled to a Shimadzu LC-20AD LC Pump system. Separation is achieved using a Waters Atlantis T3 dC18 reverse phase HPLC column (20 mm×2.1 mm) at a flow rate of 0.5 mL/min. The mobile phase consisted of 0.1% formic acid in water (solvent A) and 0.1% formic acid in 100% acetonitrile (solvent B). Elution conditions are detailed below.
The ion optics of each test compound are optimized for their declustering potential (DP), […] (CE), collision-cell exit potential (CXP) and used in a selected ion monitoring experiment in the positive ion mode. The peak area ratio of each test compound to internal standard is then evaluated for stability. The extent of metabolism is calculated based on the disappearance of the test compound, compared to its initial concentration. The initial rates of clearance of the test compound are calculated using the linear regression plot of semi-log % remaining of the compound versus time. The elimination rate constant (k) of the linear regression plot is then used to determine t1/2 and the intrinsic clearance (CLint) using the following formula, where Chepatocyte (million cells/mL) is the cell density of the incubation: k=−slope t1/2=0.693/k CLint=k/Chepatocyte
Test compounds were incubated in human hepatocytes and stability was assessed from the substrate […] approach. Test compounds were dissolved in dimethyl sulfoxide (DMSO) to create a 10 mM Stock, and then further diluted to create a 1000× Working Stock of 1 mM with DMSO in 96-well plates for test compounds and the positive control (midazolam). Vials containing cryopreserved hepatocytes were removed from the liquid nitrogen tank and immediately immersed in a 37° C. water bath. […]

Structure (SMILES)	half-life at 1 μM [h]
N#Cc1ccc(COc2cccc(C3CCN(Cc4nc5ccc(C(=O)O)cc5n4C[C@@H]4CCO4)CC3)n2)c(F)c1 [Reference Compound B, reference compound]	2.6

Same assay, conditions: cryopreserved human hepatocytes (suspension), 1×10^6 cells/mL, intrinsic clearance, read-out: hHep CLint

Structure (SMILES)	CLint scaled at 1 μM [mL/min/kg]
N#Cc1ccc(COc2cccc(C3CCN(Cc4nc5ccc(C(=O)O)cc5n4C[C@@H]4CCO4)CC3)n2)c(F)c1 [Reference Compound B, reference compound]	15.5
